IC50 data for 23 compounds are collected here from patent publication US9725445B2, “Cycloalkyl nitrile pyrazolo pyridones as Janus kinase inhibitors” (Merck Sharp & Dohme Corp., priority 2013, dated 2017).

One test has as its target JAK2 (Homo sapiens (Human), UniProt O60674). Briefly: Jak biochemical HTRF assay, JAK2. The note with it: HTRF biochemical assay, recombinant GST-tagged catalytic domain; read-out: JAK2 IC50. On the procedure:
Jak Biochemical HTRF Assay Protocol
The ability of compounds to inhibit the activity of JAK1, JAK2, JAK3, and Tyk2 was measured using a recombinant purified GST-tagged catalytic domain for each enzyme (Invitrogen JAK1 #M4290, JAK2 #M4290, JAK3 #M4290, Tyk2 #M4290) in an HTRF format biochemical assay. […] The basic assay protocol is as follows: First, 250 nL of diluted compounds in DMSO were dispensed into the wells of a dry 384-well Black plate (Greiner #781076) using a Labcyte Echo 555 acoustic dispenser. Subsequent reagent additions employed an Agilent Bravo. […] After equilibration, 2 μL of 10×ATP in 1× assay buffer was added to initiate the kinase reaction and the plates were shaken and then incubated at room temperature for 120 minutes. […] Plates were shaken and centrifuged and then incubated 60 minutes at room temperature and then read on a Perkin Elmer Envision (λex=337 nm, λem=665 and 615 nm, TRF delay time=20 μs). HTRF signal=10,000*665 nm reading/615 nm reading. After normalization to untreated controls, the percent inhibition of the HTRF signal at each compound concentration was calculated. The plot of percent inhibition versus the log of compound concentration was fit with a 4-parameter dose response equation to calculate IC50 values.
Final Reaction Conditions were:
Examples of the instant invention were evaluated in JAK1 and JAK2 in vitro binding assays.

The target of a further test is JAK1 (Homo sapiens (Human), UniProt P23458). Briefly: Jak biochemical HTRF assay, JAK1. The note with it: HTRF biochemical assay, recombinant GST-tagged catalytic domain; read-out: JAK1 IC50. In general terms: In TR-FRET formats the signal depends on donor and acceptor labels being close together.
Sequence of JAK1 (P23458 875-1153): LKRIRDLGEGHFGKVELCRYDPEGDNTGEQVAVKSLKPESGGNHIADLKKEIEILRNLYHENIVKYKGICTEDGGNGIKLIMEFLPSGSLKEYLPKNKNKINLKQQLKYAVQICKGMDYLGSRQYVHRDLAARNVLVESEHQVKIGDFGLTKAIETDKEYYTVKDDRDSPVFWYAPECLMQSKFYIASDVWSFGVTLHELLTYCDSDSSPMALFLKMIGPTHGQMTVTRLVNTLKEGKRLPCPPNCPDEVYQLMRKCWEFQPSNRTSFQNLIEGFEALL

Sequence of JAK2 (O60674 849-1124): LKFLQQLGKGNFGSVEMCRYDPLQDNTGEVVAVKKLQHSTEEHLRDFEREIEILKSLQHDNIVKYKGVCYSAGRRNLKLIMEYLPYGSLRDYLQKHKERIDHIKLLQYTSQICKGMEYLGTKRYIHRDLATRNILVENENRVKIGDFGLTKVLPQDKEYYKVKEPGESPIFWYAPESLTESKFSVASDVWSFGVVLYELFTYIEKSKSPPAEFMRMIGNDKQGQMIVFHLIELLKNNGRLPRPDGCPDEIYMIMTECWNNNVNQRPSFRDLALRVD

One may read the IC50 as the concentration needed to halve the response being measured. As to `N#C[C@H]1CCCC[C@@H]1n1nc(Nc2ccc(C(O)C(F)F)cc2)c2c(=O)[nH]ccc21` (mixture of isomers) [Example 10-1, Racemic-(1S,2S)-2-(3-((4-(2,2-difluoro-1-hydroxyethyl)phenyl)amino)-4-oxo-4,5-dihydro-1H-pyrazolo[4,3-c]pyridin-1-yl)cyclohexanecarbonitrile], the half-inhibitory concentration (IC50) on JAK2 turned out to be 0.61 nM.
Regarding `CC(C)S(=N)(=O)c1ccc(Nc2nn(C3CCC[C@@H]3C#N)c3cc[nH]c(=O)c23)cc1` (single isomer, unassigned) [Example 3-108, (1S,2S)-2-[3-({4-[(S or R)-S-(1-methylethyl)sulfonimidoyl]phenyl}amino)-4-oxo-4,5-dihydro-yl]cyclopentanecarbonitrile], the concentration for half-maximal inhibition (IC50) at JAK2 was found to be 0.5 nM.
With `CC(C)S(=N)(=O)c1ccc(Nc2nn(C3CCC[C@@H]3C#N)c3cc[nH]c(=O)c23)cc1` (single isomer, unassigned) [Example 3-109, (1S,2S)-2-[3-({4-[(S or R)-S-(1-methylethyl)sulfonimidoyl]phenyl}amino)-4-oxo-4,5-dihydro-1H-pyrazolo[4,3-c]pyridin-1-yl]cyclopentanecarbonitrile], the IC50 on JAK2 was 0.47 nM.
Same read-out and setting: the same measure for `CC(C)NC(c1ccc(Nc2nn([C@H]3CCC[C@@H]3C#N)c3cc[nH]c(=O)c23)cc1)C(F)(F)F` (single isomer, unassigned) [Example 3-115, (1S,2S)-2-{4-oxo-3-[(4-{(1R or 1S)-2,2,2-trifluoro-1-[(1-methylethyl)amino]ethyl}phenyl)amino]-4,5-dihydro-1H-pyrazolo[4,3-c]pyridin-1-yl}cyclopentanecarbonitrile]: 0.33 nM.
Still for that read-out and setting: the same measure for `CC(C)NC(c1ccc(Nc2nn([C@H]3CCC[C@@H]3C#N)c3cc[nH]c(=O)c23)cc1)C(F)(F)F` (single isomer, unassigned) [Example 3-116, (1S,2S)-2-{4-oxo-3-[(4-{(1S or 1R)-2,2,2-trifluoro-1-[(1-methylethyl)amino]ethyl}phenyl)amino]-4,5-dihydro-1H-pyrazolo[4,3-c]pyridin-1-yl}cyclopentanecarbonitrile]: 0.2 nM.
On the same count and under the same terms, the value for `CC(O)(c1ccc(Nc2nn([C@H]3CCC[C@@H]3C#N)c3cc[nH]c(=O)c23)cc1)C(F)(F)F` (single isomer, unassigned) [Example 3-138, (1S,2S)-2-[4-oxo-3-({4-[(1R or 1S)-2,2,2-trifluoro-1-hydroxy-1-methylethyl]phenyl}amino)-4,5-dihydro-1H-pyrazolo[4,3-c]pyridin-1-yl]cyclopentanecarbonitrile] was 0.66 nM; that for `CC(O)(c1ccc(Nc2nn([C@H]3CCC[C@@H]3C#N)c3cc[nH]c(=O)c23)cc1)C(F)(F)F` (single isomer, unassigned) [Example 3-139, (1S,2S)-2-[4-oxo-3-({4-[(1R or 1S)-2,2,2-trifluoro-1-hydroxy-1-methylethyl]phenyl}amino)-4,5-dihydro-1H-pyrazolo[4,3-c]pyridin-1-yl]cyclopentanecarbonitrile] was 0.35 nM; that for `N#C[C@H]1CCCC[C@@H]1n1nc(Nc2ccc3c(c2)C(O)C2(CCCCC2)S3(=O)=O)c2c(=O)[nH]ccc21` (single isomer, unassigned) [Example 3-174, (1S,2S)-2-(3-{[(3S or 3R)-3-hydroxy-1,1-dioxido-3H-spiro[1-benzothiophene-2,1′-cyclohexan]-5-yl]amino}-4-oxo-4,5-dihydro-1H-pyrazolo[4,3-c]pyridin-1-yl)cyclohexanecarbonitrile] was 0.49 nM.
As to `CC(C)S(=O)(=O)c1ccc(Nc2nn([C@H]3CCCC[C@@H]3C#N)c3cc[nH]c(=O)c23)cc1` [Example 3-141, (1S,2S)-2-[3-({4-[(1-methylethyl)sulfonyl]phenyl}amino)-4-oxo-4,5-dihydro-1H-pyrazolo[4,3-c]pyridin-1-yl]cyclohexanecarbonitrile], the 50% inhibitory concentration (IC50) on JAK1 stood at 0.15 nM.
Same read-out and setting: the value for `CC(C)(C)S(=O)(=O)c1ccc(Nc2nn([C@H]3CCCC[C@@H]3C#N)c3cc[nH]c(=O)c23)cc1` [Example 3-143, (1S,2S)-2-(3-{[4-(tert-butylsulfonyl)phenyl]amino}-4-oxo-4,5-dihydro-1H-pyrazolo[4,3-c]pyridin-1-yl)cyclohexanecarbonitrile] was 0.12 nM.
Take `CC(C)N1Cc2cc(Nc3nn([C@H]4CCCC[C@@H]4C#N)c4cc[nH]c(=O)c34)ccc2C1=O` [Example 3-153, (1S,2S)-2-(3-{[2-(1-methylethyl)-1-oxo-2,3-dihydro-1H-isoindol-5-yl]amino}-4-oxo-4,5-dihydro-1H-pyrazolo[4,3-c]pyridin-1-yl)cyclohexanecarbonitrile]: the concentration for half-maximal inhibition (IC50) at JAK1 came to 0.057 nM.
Consider `CC(C)(C)OC(=O)CCN1Cc2ccc(Nc3nn([C@H]4CCCC[C@@H]4C#N)c4cc[nH]c(=O)c34)cc2C1` [Example 3-163, tert-butyl 3-[5-({1-[(1S,2S)-2-cyanocyclohexyl]-4-oxo-4,5-dihydro-1H-pyrazolo[4,3-c]pyridin-3-yl}amino)-1,3-dihydro-2H-isoindol-2-yl]propanoate], for which the half-maximal inhibitory concentration (IC50) on JAK1 amounted to 0.49 nM.
Same read-out and setting: the same measure for `C[C@H](N[C@@H]1CC[C@H](n2nc(Nc3ccc(C(F)(F)F)cc3)c3c(=O)[nH]ccc32)[C@@H](C#N)C1)C1CC1` [Example 5-11, (1S,2S,5R)-5-(((S)-1-cyclopropylethyl)amino)-2-(4-oxo-3-((4-(trifluoromethyl)phenyl)amino)-4,5-dihydro-1H-pyrazolo[4,3-c]pyridin-1-yl)cyclohexanecarbonitrile]: 3 nM; for `C[C@H](N[C@H]1CC[C@H](n2nc(Nc3ccc(C(F)(F)F)cc3)c3c(=O)[nH]ccc32)[C@@H](C#N)C1)C1CC1` [Example 5-12, (1S,2S,5S)-5-(((S)-1-cyclopropylethyl)amino)-2-(4-oxo-3-((4-(trifluoromethyl)phenyl)amino)-4,5-dihydro-1H-pyrazolo[4,3-c]pyridin-1-yl)cyclohexanecarbonitrile]: 1.2 nM; for `C[C@H](N[C@H]1CC[C@@H](n2nc(Nc3ccc(C(F)(F)F)cc3)c3c(=O)[nH]ccc32)[C@H](C#N)C1)C1CC1` [Example 5-13, (1R,2R,5S)-5-(((S)-1-cyclopropylethyl)amino)-2-(4-oxo-3-((4-(trifluoromethyl)phenyl)amino)-4,5-dihydro-1H-pyrazolo[4,3-c]pyridin-1-yl)cyclohexanecarbonitrile]: 97 nM.
As for `C[C@H](N[C@@H]1CC[C@@H](n2nc(Nc3ccc(C(F)(F)F)cc3)c3c(=O)[nH]ccc32)[C@H](C#N)C1)C1CC1` [Example 5-14, (1R,2R,5R)-5-(((S)-1-cyclopropylethyl)amino)-2-(4-oxo-3-((4-(trifluoromethyl)phenyl)amino)-4,5-dihydro-1H-pyrazolo[4,3-c]pyridin-1-yl)cyclohexanecarbonitrile], the IC50 at JAK1 is 9.4 nM.
Still for that read-out and setting: the value for `N#C[C@H]1C[C@H](N2CC(O)C2)CC[C@@H]1n1nc(Nc2ccc(Cl)cc2)c2c(=O)[nH]ccc21` [Example 5-19, (1S,2S,5R)-2-(3-((4-chlorophenyl)amino)-4-oxo-4,5-dihydro-1H-pyrazolo[4,3-c]pyridin-1-yl)-5-(3-hydroxyazetidin-1-yl)cyclohexanecarbonitrile] was 0.11 nM.
Still for that read-out and setting: the value for `N#C[C@H]1C[C@@H](N2CC(O)C2)CC[C@@H]1n1nc(Nc2ccc(Cl)cc2)c2c(=O)[nH]ccc21` [Example 5-20, (1S,2S,5S)-2-(3-((4-chlorophenyl)amino)-4-oxo-4,5-dihydro-1H-pyrazolo[4,3-c]pyridin-1-yl)-5-(3-hydroxyazetidin-1-yl)cyclohexanecarbonitrile] was 0.14 nM.
Same read-out and setting: the same measure for `N#C[C@H]1CCCC[C@@H]1n1nc(Nc2cccc(CN)c2)c2c(=O)[nH]ccc21` [Example 6-1, (1S,2S)-2-(3-((3-(Aminomethyl)phenyl)amino)-4-oxo-4,5-dihydro-1H-pyrazolo[4,3-c]pyridin-1-yl)cyclohexanecarbonitrile]: 1.5 nM; for `CN(C)S(=O)(=O)c1ccc(Nc2nn([C@H]3CCCC[C@@H]3C#N)c3cc[nH]c(=O)c23)cc1CN` [Example 8-1, 2-(Aminomethyl)-4-((1-((1S,2S)-2-cyanocyclohexyl)-4-oxo-4,5-dihydro-1H-pyrazolo[4,3-c]pyridin-3-yl)amino)-N,N-dimethylbenzenesulfonamide]: 0.78 nM; for `N#C[C@H]1CCCC[C@@H]1n1nc(Nc2ccc(-c3ccon3)cc2)c2c(=O)[nH]ccc21` [Example 15-4, (1S,2S)-2-{3-[(4-isoxazol-3-ylphenyl)amino]-4-oxo-4,5-dihydro-1H-pyrazolo[4,3-c]pyridin-1-yl}cyclohexanecarbonitrile]: 0.18 nM.
`N#C[C@H]1CCCC[C@@H]1n1nc(Nc2ccc3c(c2)CN(C2CCOCC2)S3(=O)=O)c2c(=O)[nH]ccc21` [Example 15-44, (1S,2S)-2-(3-{[1,1-dioxido-2-(tetrahydro-2H-pyran-4-yl)-2,3-dihydro-1,2-benzisothiazol-5-yl]amino}-4-oxo-4,5-dihydro-1H-pyrazolo[4,3-c]pyridin-1-yl)cyclohexanecarbonitrile]: the IC50 at JAK1 was found to be 0.057 nM.
For the compound `N#C[C@H]1CCCC[C@@H]1n1nc(Nc2ccc([C@]3(O)CC[C@H](C(=O)O)CC3)cc2)c2c(=O)[nH]ccc21` [Example 17-2], on JAK1, the IC50 stood at 0.53 nM.
